pEC50: −log10 of the molar value. Active and inactive are the calls of the source. The rule behind the calls is not given here.
How the values were obtained:
[1] = test system: Staphylococcus aureus; test: Antimicrobial activity against Staphylococcus aureus assessed as diameter of zone of inhibition at 0.25 ug/ml measured after 18 to 24 hrs by paper disk diffusion method; format: functional, organism-based; conditions: dose 0.25 µg/ml, time 18-24 hrs
[2] = test system: Staphylococcus aureus; test: Antimicrobial activity against Staphylococcus aureus assessed as diameter of zone of inhibition at 0.5 ug/ml measured after 18 to 24 hrs by paper disk diffusion method; format: functional; conditions: time 18-24 hrs, read-out: DIZ
[3] = test system: Serratia entomophila; test: Antimicrobial activity against Serratia entomophila DSM 12358 assessed as zone of inhibition at 80 ug measured after 1 to 2 days by paper disk diffusion method; format: functional, organism-based; conditions: dose 80.0 µg, time 1-2 day
[4] = test system: Micrococcus luteus; test: Antimicrobial activity against Micrococcus luteus assessed as zone of inhibition at 80 ug measured after 1 to 2 days by paper disk diffusion method; format: functional, organism-based; conditions: dose 80.0 µg, time 1-2 day
[5] = test system: Escherichia coli; test: Antimicrobial activity against Escherichia coli DH10B assessed as zone of inhibition at 80 ug measured after 1 to 2 days by paper disk diffusion method; format: functional, organism-based; conditions: dose 80.0 µg, time 1-2 day
[6] = test system: Staphylococcus aureus; test: Potentiation of imipenem-induced antimicrobial activity against Staphylococcus aureus at 10 ug measured after 18 to 24 hrs in presence of 0.5 ug/ml imipenem by paper disk diffusion method; format: functional, organism-based; conditions: dose 10.0 µg, time 18-24 hrs
[7] = test system: Coxsackievirus B3; test: Antiviral activity against Coxsackievirus B3 infected in human Hep-2 cells assessed as protection against virus-induced pathological changes measured after 48 hrs by microscopic analysis; format: functional, organism-based
[8] = test system: Saccharomyces cerevisiae; test: Antimicrobial activity against Saccharomyces cerevisiae assessed as zone of inhibition at 80 ug measured after 1 to 2 days by paper disk diffusion method; format: functional, organism-based; conditions: dose 80.0 µg, time 1-2 day
[9] = Cytotoxicity against Coxsackievirus B3 infected human Hep-2 cells assessed as reduction in cell viability measured after 48 hrs by MTT assay; format: toxicity, cell-based; conditions: Coxsackievirus B3 infected Hep-2 cells
[10] = test system: Staphylococcus aureus; test: Antimicrobial activity against Staphylococcus aureus assessed as zone of inhibition at 80 ug measured after 1 to 2 days by paper disk diffusion method; format: functional; conditions: time 1-2 day, read-out: IZ
[11] = test system: Coxsackievirus B3; test: Antiviral activity against Coxsackievirus B3 infected in human Hep-2 cells assessed as inhibition of virus-induced cytopathic effect measured after 48 hrs by MTT assay; format: functional, organism-based; conditions: Enterovirus B, HEp-2, 48 h
[12] = Selectivity index, ratio of CC50 for human Hep-2 cells to EC50 for antiviral activity against Coxsackievirus B3 infected in human Hep-2 cells; format: toxicity, cell-based; conditions: read-out: Ratio CC50/EC50
[13] = test system: Coxsackievirus B3; test: Antiviral activity against Coxsackievirus B3 infected in human Hep-2 cells assessed as inhibition of virus-induced cytopathic effect measured after 48 hrs by MTT assay relative to control; format: functional
[14] = test system: Pseudomonas sp.; test: Antimicrobial activity against Pseudomonas sp. assessed as zone of inhibition at 80 ug measured after 1 to 2 days by paper disk diffusion method; format: functional, organism-based; conditions: dose 80.0 µg, time 1-2 day
[15] = test system: Coxsackievirus B3; test: Antiviral activity against Coxsackievirus B3 infected in human Hep-2 cells assessed as protection against virus-induced apoptosis measured after 48 hrs by microscopic analysis; format: functional, organism-based
[16] = test system: Coxsackievirus B3; test: Antiviral activity against Coxsackievirus B3 infected in human Hep-2 cells assessed as log reduction in viral progeny yield measured after 48 hrs relative to control; format: functional

| SMILES | diameter of the inhibition zone (DIZ) [1] | zone of inhibition at 0.5 µg/mL [2] | inhibition zone (IZ) [3] | inhibition zone (IZ) [4] | inhibition zone (IZ) [5] | Activity [6] | Activity [7] | inhibition zone (IZ) [8] | CC50 at 48 h [9] | zone of inhibition at 80 µg/disc [10] | pEC50 [11] | selectivity ratio [12] | Imax [13] | inhibition zone (IZ) [14] | Activity [15] | log(activity) [16] |
| --- | --- | --- | --- | --- | --- | --- | --- | --- | --- | --- | --- | --- | --- | --- | --- | --- |
| C[C@@H](O)[C@H]1C(=O)N2C(C(=O)O)=C(SCCNC=N)C[C@H]12 [IMIPENEM ANHYDROUS] | inactive | ~2 mm |  |  |  |  |  |  |  |  |  |  |  |  |  |  |
| C=C[C@@](C)(O)[C@@H]1C[C@H]2C(=C)[C@@H]3C[C@H]4C(C)(C)CCC[C@]24[C@H]1O3 |  |  | inactive | inactive | inactive | inactive | Active | inactive | 160 µM | ~1 mm | 4.11 | 2 | 90.1% | inactive | Active |  |
| C=C[C@](C)(O)[C@H]1C[C@H]2C(=C)[C@@H]3C[C@H]4C(C)(C)CCC[C@]24[C@H]1O3 |  |  | inactive | inactive | inactive | inactive | Active | inactive | 161 µM | ~1 mm | 4.37 | 3.8 | 85.3% | inactive | Active |  |
| NC(=O)c1ncn([C@@H]2O[C@H](CO)[C@@H](O)[C@H]2O)n1 [RIBAVIRIN] |  |  |  |  |  |  |  |  | 386 µM |  | 3.95 | 3.4 |  |  |  |  |
| C=C[C@@](C)(O)[C@H]1C[C@H]2C(=C)[C@@H]3C[C@H]4C(C)(C)CCC[C@]24[C@H]1O3 |  |  | inactive | inactive | inactive | inactive | Active | inactive | 168 µM | ~1 mm | 4.57 | 6.2 | 91.2% | inactive | Active | ~4.5 |
